According to patent US12636270B2, “Levothyroxine liquid formulations” (Fresenius Kabi USA, LLC, priority 2016, dated 2026):
Read-outs that look alike come from different tables or passages of the source.

Experiments:
[1] = 20 mcg/mL, tromethamine 10 mg/mL, normal saline
Protocol: Separate samples containing levothyroxine sodium at a concentration of 20 mcg/mL, tromethamine at a concentration of 10 mg/mL in normal saline (0.9% NaCl in water) were adjusted to various pH levels. One sample additionally contained hydroxypropyl (HP) β-cyclodextrin at a concentration of 10 mg/mL. 5 mL of each sample was filled into 10 cc amber tubing vials, and the vials were stoppered with 20 mm stoppers under nitrogen. The samples were stored at temperatures of 25° C., 40° C. and 55° C. The samples stored at 55° C. were analyzed by HPLC at 1 and 4 weeks (W) of storage. The samples stored at 40° C. were analyzed by HPLC at 4 W and 3 months (M) of storage. The samples stored at 25° C. were analyzed by HPLC at 3M of storage.
The HPLC conditions were as follows: • Column: Waters […]™ C8 (5 μm, 4.6×150 mm) HPLC column • Mobile Phase A: Sodium heptanesulfonate/Acetonitrile/Water/Methanol/H3PO4 (4.023 g/800 mL/1600 mL/1600 mL/4 mL) • Mobile Phase B: Sodium heptanesulfonate/Acetonitrile/Water/Methanol/H3PO4 (2.013 g/1000 mL/100 mL/900 mL/2 mL) • Diluent: 0.01 N NaOH • Column temperature: 25° C. • Flow rate: 1.5 mL/min • Injection volume: 40-200 μL • Autosampler temperature: 5° C. • Detection: UV at 225 nm • Separation mode: Gradient Gradient Program: […]
The results for liothyronine, largest unknown impurity, and total impurities as determined by peak area percent are set forth in Table 1.

[2] = 4 W, 20 mcg/mL, tromethamine 10 mg/mL, 5.4 mg/mL sodium chloride in water
Protocol: Separate samples containing 20 mcg/mL levothyroxine sodium, 10 mg/mL tromethamine, 5.4 mg/mL sodium chloride, and sodium iodide at a concentration of 280 mcg/mL, 140 mcg/mL, or 6 mcg/mL in water were adjusted to various pH levels. 5 mL of each sample was filled into 10 cc flint molded vials, and the vials were stoppered with 20 mm stoppers under nitrogen.
The HPLC conditions were as follows: • Column: ACE Excel 3 C18-PFP, 4.6×150 mm HPLC column • Mobile Phase A: Sodium heptanesulfonate/Acetonitrile/Water/Methanol/H3PO4 (4.0 g/800 mL/1600 mL/1600 mL/4.0 mL) • Mobile Phase B: Sodium heptanesulfonate/Acetonitrile/Water/Methanol/H3PO4 (4.0 g/2000 mL/200 mL/1800 mL/4.0 mL) • Diluent: 0.01 N NaOH • Column temperature: 25° C. • Flow rate: 1.5 mL/min • Injection volume: 80 μL • Autosampler temperature: 5° C. • Detection: UV at 225 nm • Separation mode: Gradient Gradient Program: […]

[3] = 55° C., 1 W, pH 9, HP-β-cyclodextrin 10 mg/mL
[4] = 25° C., NaI 140 mcg/mL, pH 10.5
[5] = 25° C., NaI 280 mcg/mL, pH 10.5
[6] = 55° C., NaI 140 mcg/mL, pH 10.5
[7] = 55° C., NaI 280 mcg/mL, pH 10.5

N[C@@H](Cc1cc(I)c(Oc2cc(I)c(O)c(I)c2)c(I)c1)C(=O)[O-].[Na+] [Levothyroxine Na, 4-(4-hydroxy-3,5-diiodophenoxy)-3,5-diiodo-L-phenylalanine sodium]
% Liothyronine ([1]; 25° C., 3 M, pH 9.5): 0.6% | % largest unknown impurity ([1]; 25° C., 3 M, pH 9.5): 0.46% | % total impurities ([1]; 25° C., 3 M, pH 9.5): 1.51% | % Liothyronine ([1]; 25° C., 3 M, pH 10): 0.35% | % largest unknown impurity ([1]; 25° C., 3 M, pH 10): 0.11% | % total impurities ([1]; 25° C., 3 M, pH 10): 0.71% | % largest unknown impurity ([1]; 40° C., 3 M, pH 9.5): 0.48% | % total impurities ([1]; 40° C., 3 M, pH 9.5): 2.66% | % largest unknown impurity ([1]; 40° C., 3 M, pH 10): 0.16% | % total impurities ([1]; 40° C., 3 M, pH 10): 1.35% | % Liothyronine ([1]; 40° C., 4 W, pH 9.5): 0.9% | % largest unknown impurity ([1]; 40° C., 4 W, pH 9.5): 0.12% | % total impurities ([1]; 40° C., 4 W, pH 9.5): 1.7% | % Liothyronine ([1]; 40° C., 4 W, pH 10): 0.4% | % largest unknown impurity ([1]; 40° C., 4 W, pH 10): 0.12% | % total impurities ([1]; 40° C., 4 W, pH 10): 0.6% | % Liothyronine ([1]; 55° C., 1 W, pH 8): 15.2% | % largest unknown impurity ([1]; 55° C., 1 W, pH 8): 1.59% | % total impurities ([1]; 55° C., 1 W, pH 8): 17.5% | % Liothyronine [1, 3]: 2.7% | % largest unknown impurity [1, 3]: 0.86% | % total impurities [1, 3]: 4.0% | % Liothyronine ([1]; 55° C., 1 W, pH 9): 2.7% | % largest unknown impurity ([1]; 55° C., 1 W, pH 9): 0.67% | % total impurities ([1]; 55° C., 1 W, pH 9): 3.6% | % Liothyronine ([1]; 55° C., 1 W, pH 9.5): 1.2% | % largest unknown impurity ([1]; 55° C., 1 W, pH 9.5): 0.50% | % total impurities ([1]; 55° C., 1 W, pH 9.5): 2.2% | % Liothyronine ([1]; 55° C., 1 W, pH 10): 0.6% | % largest unknown impurity ([1]; 55° C., 1 W, pH 10): 0.27% | % total impurities ([1]; 55° C., 1 W, pH 10): 1.5% | % largest unknown impurity ([1]; 55° C., 4 W, pH 9.5): 0.09% | % total impurities ([1]; 55° C., 4 W, pH 9.5): 2.1% | % Liothyronine ([1]; 55° C., 4 W, pH 10): 3.1% | % largest unknown impurity ([1]; 55° C., 4 W, pH 10): 0.55% | % total impurities ([1]; 55° C., 4 W, pH 10): 4.2% | % AOII ([2]; 25° C., NaI 6 mcg/mL, pH 10.5): 0.33% | % total impurities ([2]; 25° C., NaI 6 mcg/mL, pH 10.5): 1.9% | % AOII ([2]; 25° C., NaI 140 mcg/mL, pH 9.5): 0.52% | % total impurities ([2]; 25° C., NaI 140 mcg/mL, pH 9.5): 1.51% | % AOII ([2]; 25° C., NaI 140 mcg/mL, pH 10): 0.55% | % total impurities ([2]; 25° C., NaI 140 mcg/mL, pH 10): 1.64% | % AOII [2, 4]: 0.6% | % total impurities [2, 4]: 1.75% | % AOII ([2]; 25° C., NaI 280 mcg/mL, pH 9.5): 0.56% | % total impurities ([2]; 25° C., NaI 280 mcg/mL, pH 9.5): 1.58% | % AOII ([2]; 25° C., NaI 280 mcg/mL, pH 10): 0.55% | % total impurities ([2]; 25° C., NaI 280 mcg/mL, pH 10): 1.61% | % AOII [2, 5]: 0.57% | % total impurities [2, 5]: 1.66% | % AOII ([2]; 55° C., NaI 6 mcg/mL, pH 10.5): 0.99% | % total impurities ([2]; 55° C., NaI 6 mcg/mL, pH 10.5): 3.5% | % AOII ([2]; 55° C., NaI 140 mcg/mL, pH 9.5): 0.59% | % total impurities ([2]; 55° C., NaI 140 mcg/mL, pH 9.5): 3.6% | % AOII ([2]; 55° C., NaI 140 mcg/mL, pH 10): 0.61% | % total impurities ([2]; 55° C., NaI 140 mcg/mL, pH 10): 2.86% | % AOII [2, 6]: 0.53% | % total impurities [2, 6]: 2.49% | % AOII ([2]; 55° C., NaI 280 mcg/mL, pH 9.5): 0.53% | % total impurities ([2]; 55° C., NaI 280 mcg/mL, pH 9.5): 3.24% | % AOII ([2]; 55° C., NaI 280 mcg/mL, pH 10): 0.54% | % total impurities ([2]; 55° C., NaI 280 mcg/mL, pH 10): 2.76% | % AOII [2, 7]: 0.53% | % total impurities [2, 7]: 2.43%
